The values that follow come from patent US20220370416A1, “COMPOUNDS AND METHODS FOR TARGETED DEGRADATION OF KRAS” (Arvinas Operations, Inc., priority 2020, published 2022).

The structures appear in SMILES notation. Where only a bound is given, the exact number is not on record here.

Sequence of HiBit-KRAS^G12C (P01116 1-186 isoform P01116-2 G12C limits assumed): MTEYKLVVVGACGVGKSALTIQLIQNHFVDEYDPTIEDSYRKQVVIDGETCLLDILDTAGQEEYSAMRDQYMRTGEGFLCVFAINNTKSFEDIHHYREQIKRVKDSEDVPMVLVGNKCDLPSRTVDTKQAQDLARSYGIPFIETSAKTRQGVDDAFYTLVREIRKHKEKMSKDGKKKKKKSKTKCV

The target of the first assay is HiBit-KRAS^G12C (Homo sapiens, UniProt P01116, G12C). Nature of the assay: HiBit degradation assay in SW1573 HiBit-KRas^G12C cells. The format is cell-based. Set-up: expressed in transfected cells; host or cells: SW1573 (clone E6), modified pcDNA3.1 vector, TK promoter. To be noted: SW1573, SW1573 HiBit-KRas^G12C, 0.1% DMSO, 24 hours; read-out: KRas^G12C-HiBit (SW1573; 0.1% DMSO) Dmax**. The method, then:
Reagents. SW1573 (CRL-2170) and MiaPaCa-2 (CRL-1420) cells were purchased from ATCC. Both cell lines are […] for the G12C mutation in KRAS. SW1573 cells were cultured in DMEM+F12+Glutamax (+Sodium Bicarbonate, +sodium pyruvate, Thermofisher scientific, #10565) supplemented with 10% FBS (Thermofisher scientific, #2060357) and 1% Antibiotic-Antimycotic (Thermofisher scientific, #15240096). MiaPaCa-2 cells were cultured in DMEM+Glutamax media (Thermofisher scientific, #10566) supplemented with 10% FBS (Thermofisher scientific, #2060357) and 1% Antibiotic-Antimycotic (Thermofisher scientific, #15240096). For degradation assays, 384 well plates were purchased from Corning (Corning® CellBIND® 384-well Flat Clear Bottom Black Polystyrene Microplates, Low Flange, #3770). Gambogic acid was purchased from Selleckchem (#S2448). Alamar blue was purchased from Thermofisher scientific (A50101) and used according to manufacturer instructions. The Nano-Glo® HiBit Lytic Detection System and Nano-Glo® HiBit Blotting System were purchased from Promega (#N3050 and #N2410) and used according to manufacturer instructions.
To create the SW1573 HiBit-KRAS^G12C cell line, the nucleotide sequence encoding the 11 amino acid HiBit tag from Promega (Schwinn, M. K. et al. (2018) CRISPR-mediated tagging of endogenous proteins with a luminescent peptide. ACS Chem. Biol. 13(2), 467-474) was appended to the N-terminus of the KRAS^G12C coding sequence. This synthesized DNA was cloned into a modified pcDNA3.1 vector under the control of the thymidine kinase (TK) promoter. This HiBit-KRAS^G12C expressing plasmid was transfected into parental SW1573 cells and colonies were selected using 400 μg/mL zeocin. The resulting clonal lines were screened for expression of HiBit-KRAS^G12C protein using Nano-Glo® HiBit Blotting System. A luminescent band of the correct size for HiBit-KRAS^G12C was detected in several clones. Clone E6 was selected for further studies.
Either SW1573 HiBit-KRas^G12C or MiaPaCa-2 HiBit-KRas^G12C cells were plated at 9000 cells/well in a 384 well plate (Corning #3770). Exemplary heterobifunctional molecules and positive controls were diluted in the appropriate cell media and applied to the plated cells resulting in a final concentration titration of 10 μM to 20 nM in either 0.1% or 0.5% dimethyl sulfoxide (DMSO). Gambogic acid was used as a positive control for cytotoxicity and titrated from 10 μM to 78 nM. All assays were performed in triplicate. Cells were treated with compounds for 24 hours at 37° C. in an incubator containing 5% CO2. Following treatment, alamar blue was used to determine if any compounds led to a loss in cell viability after 24 hours. The 10× alamar blue reagent was added to a final concentration of 1× as recommended by the manufacturer and cells were returned to the incubator for 4 hours. Plates were then allowed to equilibrate to room temperature and fluorescence was measured using a Perkin-Elmer EnVision. After completion of the fluorescence read, the liquid from each well was removed and the cells were washed with PBS. The Nano-Glo® HiBiT detection reagent was prepared according to the manufacturer's instructions and added to each well after the PBS wash was removed. Following incubation at room temperature for 45 minutes, the luminescence was read using the ultra-sensitive luminescence aperture on the Envision instrument.
Fluorescence values from the alamar blue treatment were normalized to the DMSO only control for each compound titration. We hypothesized that compounds that led to a ≥50% loss in cell viability of the KRAS-independent SW1573 HiBit-KRas^G12C cells were likely generally cytotoxic and loss of HiBit-KRAS^G12C signal from these compounds may be due to lower cell number and not specific KRAS^G12C degradation. These points were therefore excluded from the data analysis for degradation. […]
In general terms: HiBiT is a short tag that completes a luciferase, so light tracks the accessible tagged protein.
For `C=CC(=O)N1CCN(c2nc(O[C@H](C)CN3CCC(OCCOCCOCCOCCOCCOc4cc(-c5scnc5C)ccc4CNC(=O)[C@@H]4C[C@@H](O)CN4C(=O)[C@@H](c4cc(C)no4)C(C)C)CC3)nc3c(F)c(-c4cc(O)cc5ccccc45)c(Cl)cc23)CC1` [Compound 80], the Dmax lay in the range of 35 to 70%.

The same assay, now with this note: SW1573 HiBit-KRas^G12C, 0.1% DMSO, 24 hours; read-out: KRas^G12C-HIBit (SW1573; 0.1% DMSO) DC50*.
`C=CC(=O)N1CCN(c2nc(O[C@H](C)CN3CCN(CCCC4CCN(CC(=O)N[C@H](C(=O)N5C[C@H](O)C[C@H]5C(=O)N[C@@H](C)c5ccc(-c6scnc6C)cc5)C(C)(C)C)CC4)CC3)nc3c(F)c(-c4cc(O)cc5ccccc45)c(Cl)cc23)CC1` [Compound 52, (2S,4R)-1-[(2S)-2-{2-[4-(3-{4-[(2R)-2-{[6-chloro-8-fluoro-7-(3-hydroxynaphthalen-1-yl)-4-[4-(prop-2-enoyl)piperazin-1-yl]quinazolin-2-yl]oxy}propyl]piperazin-1-yl}propyl)piperidin-1-yl]acetamido}-3,3-dimethylbutanoyl]-4-hydroxy-N-[(1S)-1-[4-(4-methyl-1,3-thiazol-5-yl)phenyl]ethyl]pyrrolidine-2-carboxamide]: the DC50 was more than 1000 nM.

With `C=CC(=O)N1CCN(c2nc(O[C@H](C)CN3CCC(OCCOCCOc4cc(-c5scnc5C)ccc4CNC(=O)[C@@H]4C[C@@H](O)CN4C(=O)[C@@H](c4cc(C)no4)C(C)C)CC3)nc3c(F)c(-c4cc(O)cc5ccccc45)c(Cl)cc23)CC1` [Compound 72, (2S,4R)-N-[(2-{2-[2-({1-[(2R)-2-{[6-chloro-8-fluoro-7-(3-hydroxynaphthalen-1-yl)-4-[4-(prop-2-enoyl)piperazin-1-yl]quinazolin-2-yl]oxy}propyl]piperidin-4-yl}oxy)ethoxy]ethoxy}-4-(4-methyl-1,3-thiazol-5-yl)phenyl)methyl]-4-hydroxy-1-[(2R)-3-methyl-2-(3-methyl-1,2-oxazol-5-yl)butanoyl]pyrrolidine-2-carboxamide], the DC50 was more than 1000 nM.

`C=CC(=O)N1CCN(c2nc(OC[C@@H]3C[C@@H](OCCOCCOCCOCCOCCOCCOCCOCCOCCOCCOCC(=O)N[C@H](C(=O)N4C[C@H](O)C[C@H]4C(=O)N[C@@H](C)c4ccc(-c5scnc5C)cc4)C(C)(C)C)CN3C)nc3c2CCN(c2cccc4ccccc24)C3)C[C@@H]1CC#N` [Compound 73, (2S,4R)-1-[(2S)-2-(32-{[(3R,5S)-5-[({4-[(3S)-3-(cyanomethyl)-4-(prop-2-enoyl)piperazin-1-yl]-7-(naphthalen-1-yl)-5H,6H,7H,8H-pyrido[3,4-d]pyrimidin-2-yl}oxy)methyl]-1-methylpyrrolidin-3-yl]oxy}-3,6,9,12,15,18,21,24,27,30-decaoxadotriacontanamido)-3,3-dimethylbutanoyl]-4-hydroxy-N-[(1S)-1-[4-(4-methyl-1,3-thiazol-5-yl)phenyl]ethyl]pyrrolidine-2-carboxamide]: the DC50 is more than 1000 nM.

Regarding `C=CC(=O)N1CCN(c2nc(OCCN3CCC(OCCOCC(=O)N[C@H](C(=O)N4C[C@H](O)C[C@H]4C(=O)N[C@@H](C)c4ccc(-c5scnc5C)cc4)C(C)(C)C)CC3)nc3c(F)c(-c4cccc5cccc(C)c45)c(Cl)cc23)C[C@@H]1CC#N` [Compound 23, (2S,4R)-1-[(2S)-2-{2-[2-({1-[2-({6-chloro-4-[(3S)-3-(cyanomethyl)-4-(prop-2-enoyl)piperazin-1-yl]-8-fluoro-7-(8-methylnaphthalen-1-yl)quinazolin-2-yl}oxy)ethyl]piperidin-4-yl}oxy)ethoxy]acetamido}-3,3-dimethylbutanoyl]-4-hydroxy-N-[(1S)-1-[4-(4-methyl-1,3-thiazol-5-yl)phenyl]ethyl]pyrrolidine-2-carboxamide], the DC50 is more than 1000 nM.

`C=CC(=O)N1CCN(c2nc(O[C@H](C)CN3CCC(OCCOCCOCCOCCOCCOc4cc(-c5scnc5C)ccc4CNC(=O)[C@@H]4C[C@@H](O)CN4C(=O)[C@@H](c4cc(C)no4)C(C)C)CC3)nc3c(F)c(-c4cc(O)cc5ccccc45)c(Cl)cc23)CC1` [Compound 80]: the DC50 was more than 1000 nM.

As for `C=CC(=O)N1CCN(c2nc(O[C@H](C)CN3CCC(OCCOCC(=O)N[C@H](C(=O)N4C[C@H](O)C[C@H]4C(=O)N[C@@H](C)c4ccc(-c5scnc5C)cc4)C(C)(C)C)CC3)nc3c2CCN(c2cccc4ccccc24)C3)C[C@@H]1CC#N` [Compound 58, (2S,4R)-1-[(2S)-2-{2-[2-({1-[(2R)-2-({4-[(3S)-3-(cyanomethyl)-4-(prop-2-enoyl)piperazin-1-yl]-7-(naphthalen-1-yl)-5H,6H,7H,8H-pyrido[3,4-d]pyrimidin-2-yl}oxy)propyl]piperidin-4-yl}oxy)ethoxy]acetamido}-3,3-dimethylbutanoyl]-4-hydroxy-N-[(1S)-1-[4-(4-methyl-1,3-thiazol-5-yl)phenyl]ethyl]pyrrolidine-2-carboxamide], the DC50 was more than 1000 nM.

Consider `C=CC(=O)N1CCN(c2nc(OC[C@@H]3C[C@@H](OCCOCCOCCOCCOCCOCCOCC(=O)N[C@H](C(=O)N4C[C@H](O)C[C@H]4C(=O)N[C@@H](C)c4ccc(-c5scnc5C)cc4)C(C)(C)C)CN3C)nc3c2CCN(c2cccc4ccccc24)C3)C[C@@H]1CC#N` [Compound 81, (2S,4R)-1-[(2S)-2-(20-{[(3R,5S)-5-[({4-[(3S)-3-(cyanomethyl)-4-(prop-2-enoyl)piperazin-1-yl]-7-(naphthalen-1-yl)-5H,6H,7H,8H-pyrido[3,4-d]pyrimidin-2-yl}oxy)methyl]-1-methylpyrrolidin-3-yl]oxy}-3,6,9,12,15,18-hexaoxaicosanamido)-3,3-dimethylbutanoyl]-4-hydroxy-N-[(1S)-1-[4-(4-methyl-1,3-thiazol-5-yl)phenyl]ethyl]pyrrolidine-2-carboxamide], for which the DC50 is more than 1000 nM.

Regarding `C=CC(=O)N1CCN(c2nc(O[C@H](C)CN3CCC(CCCN4CCN(CC(=O)N[C@H](C(=O)N5C[C@H](O)C[C@H]5C(=O)N[C@@H](C)c5ccc(-c6scnc6C)cc5)C(C)(C)C)CC4)CC3)nc3c(F)c(-c4cc(O)cc5ccccc45)c(Cl)cc23)CC1` [Compound 56, (2S,4R)-1-[(2S)-2-{2-[4-(3-{1-[(2R)-2-{[6-chloro-8-fluoro-7-(3-hydroxynaphthalen-1-yl)-4-[4-(prop-2-enoyl)piperazin-1-yl]quinazolin-2-yl]oxy}propyl]piperidin-4-yl}propyl)piperazin-1-yl]acetamido}-3,3-dimethylbutanoyl]-4-hydroxy-N-[(1S)-1-[4-(4-methyl-1,3-thiazol-5-yl)phenyl]ethyl]pyrrolidine-2-carboxamide], the DC50 is more than 1000 nM.

For `C=CC(=O)N1CCN(c2nc(O[C@H](C)CN3CCC(OCCOCCOCCOCCOCCOCCOCC(=O)N[C@H](C(=O)N4C[C@H](O)C[C@H]4C(=O)N[C@@H](C)c4ccc(-c5scnc5C)cc4)C(C)(C)C)CC3)nc3c(F)c(-c4cc(O)cc5ccccc45)c(Cl)cc23)CC1` [Compound 88, (2S,4R)-1-[(2S)-2-[20-({1-[(2R)-2-{[6-chloro-8-fluoro-7-(3-hydroxynaphthalen-1-yl)-4-[4-(prop-2-enoyl)piperazin-1-yl]quinazolin-2-yl]oxy}propyl]piperidin-4-yl}oxy)-3,6,9,12,15,18-hexaoxaicosanamido]-3,3-dimethylbutanoyl]-4-hydroxy-N-[(1S)-1-[4-(4-methyl-1,3-thiazol-5-yl)phenyl]ethyl]pyrrolidine-2-carboxamide], the DC50 was more than 1000 nM.
